target: T1, CA II (hCA II) (Homo sapiens, UniProt P00918); experiment: stopped-flow CO2 hydration assay, phenol red; format: biochemical
T1 construct: gene CA2; recombinant, obtained in-house as reported earlier
Excerpt: stopped-flow CO2 hydration assay, phenol red on CA II (hCA II)

SMILES	Ki
N=C(NCc1ccccc1F)Nc1ccc(S(N)(=O)=O)cc1 [7e, 4-(3-(2-Fluorobenzyl)guanidino)benzenesulfonamide]	3.2 nM
CC(NC(=N)Nc1ccc(S(N)(=O)=O)cc1)c1ccccc1 (stereo not drawn) [7h, 4-(3-(1-Phenylethyl)guanidino)benzenesulfonamide]	9.6 nM
CCCCCCCCCCCCCCCCNC(=N)Nc1ccc(S(N)(=O)=O)cc1 [7n, 4-(3-hexadecylguanidino)benzenesulfonamide]	0.06 nM
N=C(NCCOc1ccccc1)Nc1ccc(S(N)(=O)=O)cc1 [7k, 4-(3-(2-Phenoxyethyl)guanidino)benzenesulfonamide]	6.9 nM
N=C(NCc1cccc(F)c1)Nc1ccc(S(N)(=O)=O)cc1 [7d, 4-(3-(3-Fluorobenzyl)guanidino)benzenesulfonamide]	1.6 nM
N=C(Nc1ccc(S(N)(=O)=O)cc1)N(Cc1ccccc1)Cc1ccccc1 [7j, 4-(3,3-Dibenzyl-guanidino)benzenesulfonamide]	0.6 nM
COc1ccc(CNC(=N)Nc2ccc(S(N)(=O)=O)cc2)cc1 [7b, 4-(3-(4-Methoxybenzyl)guanidino)benzenesulfonamide]	17.7 nM
N=C(Nc1ccc(S(N)(=O)=O)cc1)N1CCN(Cc2ccccc2)CC1 [7o, 4-Benzyl-N-(4-sulfamoylphenyl)piperazine-1-carboximidamide]	0.1 nM
Cc1cccc(CN(C)C(=N)Nc2ccc(S(N)(=O)=O)cc2)c1 [7i, 4-(3-Methyl-3-(3-methylbenzyl)guanidino)benzenesulfonamide]	0.08 nM
CCCCCCCCCCCCNC(=N)Nc1ccc(S(N)(=O)=O)cc1 [7m, 4–(3-Dodecylguanidino)benzenesulfonamide]	0.4 nM
CCCCCCCCNC(=N)Nc1ccc(S(N)(=O)=O)cc1 [7l, 4-(3-octylguanidino)benzenesulfonamide]	0.9 nM
N=C(NCc1ccccc1)Nc1ccc(S(N)(=O)=O)cc1 [7a, 4-(3-Benzyl-guanidino)benzenesulfonamide]	7.7 nM
N=C(NCc1ccc(F)cc1)Nc1ccc(S(N)(=O)=O)cc1 [7c, 4-(3-(4-Fluorobenzyl)guanidino)benzenesulfonamide]	59.1 nM
Cc1ccccc1CNC(=N)Nc1ccc(S(N)(=O)=O)cc1 [7g, 4-(3-(2-Methylbenzyl)guanidino)benzenesulfonamide]	0.07 nM
Cc1cccc(CNC(=N)Nc2ccc(S(N)(=O)=O)cc2)c1 [7f, 4-(3-(3-Methylbenzyl)guanidino)benzenesulfonamide]	0.3 nM

target: T2, CA I (hCA I) (Homo sapiens, UniProt P00915); experiment: stopped-flow CO2 hydration assay, phenol red; format: biochemical
T2 construct: gene CA1; recombinant, obtained in-house as reported earlier
T2 sequence (P00915 2-261): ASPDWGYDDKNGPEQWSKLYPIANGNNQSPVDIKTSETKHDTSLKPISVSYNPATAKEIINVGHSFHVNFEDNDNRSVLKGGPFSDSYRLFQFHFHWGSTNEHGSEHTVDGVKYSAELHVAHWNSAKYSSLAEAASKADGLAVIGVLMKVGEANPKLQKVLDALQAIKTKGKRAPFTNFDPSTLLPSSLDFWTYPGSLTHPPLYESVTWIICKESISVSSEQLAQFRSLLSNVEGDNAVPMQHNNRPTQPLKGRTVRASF
Excerpt: stopped-flow CO2 hydration assay, phenol red on CA I (hCA I)

SMILES	Ki
N=C(NCc1ccccc1F)Nc1ccc(S(N)(=O)=O)cc1 [7e, 4-(3-(2-Fluorobenzyl)guanidino)benzenesulfonamide]	2990 nM
CC(NC(=N)Nc1ccc(S(N)(=O)=O)cc1)c1ccccc1 (stereo not drawn) [7h, 4-(3-(1-Phenylethyl)guanidino)benzenesulfonamide]	1320 nM
CCCCCCCCCCCCCCCCNC(=N)Nc1ccc(S(N)(=O)=O)cc1 [7n, 4-(3-hexadecylguanidino)benzenesulfonamide]	2150 nM
N=C(NCCOc1ccccc1)Nc1ccc(S(N)(=O)=O)cc1 [7k, 4-(3-(2-Phenoxyethyl)guanidino)benzenesulfonamide]	4180 nM
N=C(NCc1cccc(F)c1)Nc1ccc(S(N)(=O)=O)cc1 [7d, 4-(3-(3-Fluorobenzyl)guanidino)benzenesulfonamide]	782 nM
N=C(Nc1ccc(S(N)(=O)=O)cc1)N(Cc1ccccc1)Cc1ccccc1 [7j, 4-(3,3-Dibenzyl-guanidino)benzenesulfonamide]	5850 nM
COc1ccc(CNC(=N)Nc2ccc(S(N)(=O)=O)cc2)cc1 [7b, 4-(3-(4-Methoxybenzyl)guanidino)benzenesulfonamide]	699 nM
N=C(Nc1ccc(S(N)(=O)=O)cc1)N1CCN(Cc2ccccc2)CC1 [7o, 4-Benzyl-N-(4-sulfamoylphenyl)piperazine-1-carboximidamide]	3680 nM
Cc1cccc(CN(C)C(=N)Nc2ccc(S(N)(=O)=O)cc2)c1 [7i, 4-(3-Methyl-3-(3-methylbenzyl)guanidino)benzenesulfonamide]	1140 nM
CCCCCCCCCCCCNC(=N)Nc1ccc(S(N)(=O)=O)cc1 [7m, 4–(3-Dodecylguanidino)benzenesulfonamide]	930 nM
CCCCCCCCNC(=N)Nc1ccc(S(N)(=O)=O)cc1 [7l, 4-(3-octylguanidino)benzenesulfonamide]	730 nM
N=C(NCc1ccccc1)Nc1ccc(S(N)(=O)=O)cc1 [7a, 4-(3-Benzyl-guanidino)benzenesulfonamide]	746 nM
N=C(NCc1ccc(F)cc1)Nc1ccc(S(N)(=O)=O)cc1 [7c, 4-(3-(4-Fluorobenzyl)guanidino)benzenesulfonamide]	989 nM
Cc1ccccc1CNC(=N)Nc1ccc(S(N)(=O)=O)cc1 [7g, 4-(3-(2-Methylbenzyl)guanidino)benzenesulfonamide]	3160 nM
Cc1cccc(CNC(=N)Nc2ccc(S(N)(=O)=O)cc2)c1 [7f, 4-(3-(3-Methylbenzyl)guanidino)benzenesulfonamide]	2930 nM

target: T3, CA VII (hCA VII) (Homo sapiens, UniProt P43166); experiment: stopped-flow CO2 hydration assay, phenol red; format: biochemical
T3 construct: gene CA7; recombinant, obtained in-house as reported earlier
T3 sequence (P43166 whole entry): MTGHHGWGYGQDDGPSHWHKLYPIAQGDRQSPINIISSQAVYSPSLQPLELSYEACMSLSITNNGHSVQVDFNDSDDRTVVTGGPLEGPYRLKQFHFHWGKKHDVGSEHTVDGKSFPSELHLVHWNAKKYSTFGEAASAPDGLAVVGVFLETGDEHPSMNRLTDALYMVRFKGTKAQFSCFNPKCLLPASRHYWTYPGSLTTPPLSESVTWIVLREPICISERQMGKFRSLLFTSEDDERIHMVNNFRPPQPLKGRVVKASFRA
Excerpt: stopped-flow CO2 hydration assay, phenol red on CA VII (hCA VII)

SMILES	Ki
N=C(NCc1ccccc1F)Nc1ccc(S(N)(=O)=O)cc1 [7e, 4-(3-(2-Fluorobenzyl)guanidino)benzenesulfonamide]	44.9 nM
CC(NC(=N)Nc1ccc(S(N)(=O)=O)cc1)c1ccccc1 (stereo not drawn) [7h, 4-(3-(1-Phenylethyl)guanidino)benzenesulfonamide]	1.1 nM
CCCCCCCCCCCCCCCCNC(=N)Nc1ccc(S(N)(=O)=O)cc1 [7n, 4-(3-hexadecylguanidino)benzenesulfonamide]	0.08 nM
N=C(NCCOc1ccccc1)Nc1ccc(S(N)(=O)=O)cc1 [7k, 4-(3-(2-Phenoxyethyl)guanidino)benzenesulfonamide]	8.7 nM
N=C(NCc1cccc(F)c1)Nc1ccc(S(N)(=O)=O)cc1 [7d, 4-(3-(3-Fluorobenzyl)guanidino)benzenesulfonamide]	60.7 nM
N=C(Nc1ccc(S(N)(=O)=O)cc1)N(Cc1ccccc1)Cc1ccccc1 [7j, 4-(3,3-Dibenzyl-guanidino)benzenesulfonamide]	3.2 nM
COc1ccc(CNC(=N)Nc2ccc(S(N)(=O)=O)cc2)cc1 [7b, 4-(3-(4-Methoxybenzyl)guanidino)benzenesulfonamide]	25.1 nM
N=C(Nc1ccc(S(N)(=O)=O)cc1)N1CCN(Cc2ccccc2)CC1 [7o, 4-Benzyl-N-(4-sulfamoylphenyl)piperazine-1-carboximidamide]	0.06 nM
Cc1cccc(CN(C)C(=N)Nc2ccc(S(N)(=O)=O)cc2)c1 [7i, 4-(3-Methyl-3-(3-methylbenzyl)guanidino)benzenesulfonamide]	0.7 nM
CCCCCCCCCCCCNC(=N)Nc1ccc(S(N)(=O)=O)cc1 [7m, 4–(3-Dodecylguanidino)benzenesulfonamide]	0.2 nM
CCCCCCCCNC(=N)Nc1ccc(S(N)(=O)=O)cc1 [7l, 4-(3-octylguanidino)benzenesulfonamide]	2.2 nM
N=C(NCc1ccccc1)Nc1ccc(S(N)(=O)=O)cc1 [7a, 4-(3-Benzyl-guanidino)benzenesulfonamide]	10.1 nM
N=C(NCc1ccc(F)cc1)Nc1ccc(S(N)(=O)=O)cc1 [7c, 4-(3-(4-Fluorobenzyl)guanidino)benzenesulfonamide]	15 nM
Cc1ccccc1CNC(=N)Nc1ccc(S(N)(=O)=O)cc1 [7g, 4-(3-(2-Methylbenzyl)guanidino)benzenesulfonamide]	0.4 nM
Cc1cccc(CNC(=N)Nc2ccc(S(N)(=O)=O)cc2)c1 [7f, 4-(3-(3-Methylbenzyl)guanidino)benzenesulfonamide]	0.9 nM

Source: paper PMC9154774, “4-(3-Alkyl/benzyl-guanidino)benzenesulfonamides as selective carbonic anhydrase VII inhibitors” (Journal of Enzyme Inhibition and Medicinal Chemistry, 2022)
